Reference: US20230263822A1, “MODULATION OF FACTOR 11 EXPRESSION” (Ionis Pharmaceuticals, Inc., priority 2008, published 2023)

Assay: Hematology assays in cynomolgus monkeys (Example 45)
Format: in vivo
Conditions: for MCH / MCHC / MCV / RBC count / WBC count / hematocrit / hemoglobin: escalating dose regimen
Procedure: Groups, each consisting of two male and three female monkeys, were injected subcutaneously with ISIS 416838, ISIS 416850, ISIS 416858, ISIS 416864, or ISIS 417002 in escalating doses. Antisense oligonucleotide was administered to the monkeys at 5 mg/kg three times per a week for week 1; 5 mg/kg twice per week for weeks 2 and 3; 10 mg/kg three times per week for week 4; 10 mg/kg twice per week for weeks 5 and 6; 25 mg/kg three times per week for week 7; and 25 mg/kg twice per week for weeks 8, 9, 10, 11, and 12. One control group, consisting of two male and three female monkeys, was injected subcutaneously with PBS according to the same dosing regimen. An additional experimental group, consisting of two male and three female monkeys, was injected subcutaneously with ISIS 416850 in a chronic, lower dose regimen. Antisense oligonucleotide was administered to the monkeys at 5 mg/kg three times per week for week 1; 5 mg/kg twice per week for week 2 and 3; 10 mg/kg three times per week for week 4; and 10 mg/kg twice per week for weeks 5 to 12. Body weights were measured weekly. Blood samples were collected 14 days and 5 days before the start of treatment and subsequently once per week for Factor 11 protein activity analysis in plasma, fibrinogen measurement, PT and aPTT measurements, bleeding times, and measurement of various hematologic factors. On day 85, the monkeys were euthanized by exsanguination while under deep anesthesia, and organs harvested for further analysis.
The ISIS oligonucleotide, ISIS 416850, given with the chronic dose regimen is distinguished from the other oligonucleotides with an asterisk (*).

ISIS 416838: MOE gapmer, nucleobases 1018 to 1042 of SEQ ID NO: 1 (Table 6) (antisense GCAACCGGGATGATGAGTGC; MOE gapmer, wing and gap sizes not given here)
MCH (Day 64): 23 pg | MCH (Day 71): 23 pg | MCH (Day 78): 23 pg | MCH (Day 85): 23 pg | basophils (day 8): 0.2% | eosinophils (day 8): 0.4% | lymphocytes (day 8): 54% | monocytes (day 8): 2.5% | neutrophils (day 8): 42% | platelet count (day 8): 387000 µL⁻¹ | reticulocytes (day 8): 1.2% | MCH (day 8): 23 pg | MCHC (day 8): 30 g/dL | MCV (day 8): 77 fL | RBC count (day 8): 5.7e+06 µL⁻¹ | WBC count (day 8): 10000 µL⁻¹ | hematocrit (day 8): 43% | hemoglobin (day 8): 12.9 g/dL | basophils (day 15): 0.3% | eosinophils (day 15): 0.3% | lymphocytes (day 15): 53% | monocytes (day 15): 2.4% | neutrophils (day 15): 43% | platelet count (day 15): 387000 µL⁻¹ | reticulocytes (day 15): 1.2% | MCH (day 15): 23 pg | MCHC (day 15): 31 g/dL | MCV (day 15): 75 fL | RBC count (day 15): 5.6e+06 µL⁻¹ | WBC count (day 15): 10000 µL⁻¹ | hematocrit (day 15): 42% | hemoglobin (day 15): 12.9 g/dL | basophils (day 22): 0.2% | eosinophils (day 22): 0.5% | lymphocytes (day 22): 59% | monocytes (day 22): 2.9% | neutrophils (day 22): 37% | platelet count (day 22): 319000 µL⁻¹ | reticulocytes (day 22): 1.2% | MCH (day 22): 23 pg | MCHC (day 22): 29 g/dL | MCV (day 22): 80 fL | RBC count (day 22): 5.4e+06 µL⁻¹ | WBC count (day 22): 11000 µL⁻¹ | hematocrit (day 22): 43% | hemoglobin (day 22): 12.5 g/dL | basophils (day 29): 0.2% | eosinophils (day 29): 0.3% | lymphocytes (day 29): 59% | monocytes (day 29): 3.2% | neutrophils (day 29): 36% | platelet count (day 29): 337000 µL⁻¹ | reticulocytes (day 29): 1.6% | MCH (day 29): 23 pg | MCHC (day 29): 29 g/dL | MCV (day 29): 81 fL | RBC count (day 29): 5.3e+06 µL⁻¹ | WBC count (day 29): 11000 µL⁻¹ | hematocrit (day 29): 43% | hemoglobin (day 29): 12.4 g/dL | basophils (day 36): 0.4% | eosinophils (day 36): 0.5% | lymphocytes (day 36): 57% | monocytes (day 36): 2.5% | neutrophils (day 36): 39% | platelet count (day 36): 370000 µL⁻¹ | reticulocytes (day 36): 1.6% | MCH (day 36): 23 pg | MCHC (day 36): 30 g/dL | MCV (day 36): 78 fL | RBC count (day 36): 5.5e+06 µL⁻¹ | WBC count (day 36): 10000 µL⁻¹ | hematocrit (day 36): 43% | hemoglobin (day 36): 12.8 g/dL | basophils (day 43): 0.4% | eosinophils (day 43): 0.6% | lymphocytes (day 43): 65% | monocytes (day 43): 3.3% | neutrophils (day 43): 30% | platelet count (day 43): 365000 µL⁻¹ | reticulocytes (day 43): 1.2% | MCH (day 43): 23 pg | MCHC (day 43): 30 g/dL | MCV (day 43): 78 fL | RBC count (day 43): 5.6e+06 µL⁻¹ | WBC count (day 43): 10000 µL⁻¹ | hematocrit (day 43): 43% | hemoglobin (day 43): 12.7 g/dL | basophils (day 50): 0.3% | eosinophils (day 50): 0.8% | lymphocytes (day 50): 64% | monocytes (day 50): 3.2% | neutrophils (day 50): 31% | platelet count (day 50): 372000 µL⁻¹ | reticulocytes (day 50): 1.6% | MCH (day 50): 23 pg | MCHC (day 50): 28 g/dL | MCV (day 50): 80 fL | RBC count (day 50): 5.5e+06 µL⁻¹ | WBC count (day 50): 11000 µL⁻¹ | hematocrit (day 50): 44% | hemoglobin (day 50): 12.3 g/dL | basophils (day 57): 0.3% | eosinophils (day 57): 0.6% | lymphocytes (day 57): 63% | monocytes (day 57): 3.2% | neutrophils (day 57): 32% | platelet count (day 57): 371000 µL⁻¹ | reticulocytes (day 57): 1.5% | MCH (day 57): 23 pg | MCHC (day 57): 29 g/dL | MCV (day 57): 79 fL | RBC count (day 57): 5.5e+06 µL⁻¹ | WBC count (day 57): 12000 µL⁻¹ | hematocrit (day 57): 43% | hemoglobin (day 57): 12.6 g/dL | basophils (day 64): 0.4% | eosinophils (day 64): 0.7% | lymphocytes (day 64): 64% | monocytes (day 64): 3.5% | neutrophils (day 64): 30% | platelet count (day 64): 358000 µL⁻¹ | reticulocytes (day 64): 1.3% | MCHC (day 64): 29 g/dL | MCV (day 64): 79 fL | RBC count (day 64): 5.6e+06 µL⁻¹ | WBC count (day 64): 13000 µL⁻¹ | hematocrit (day 64): 44% | hemoglobin (day 64): 12.6 g/dL | basophils (day 71): 0.5% | eosinophils (day 71): 0.8% | lymphocytes (day 71): 65% | monocytes (day 71): 4.3% | neutrophils (day 71): 28% | platelet count (day 71): 365000 µL⁻¹ | reticulocytes (day 71): 1.3% | MCHC (day 71): 29 g/dL | MCV (day 71): 80 fL | RBC count (day 71): 5.5e+06 µL⁻¹ | WBC count (day 71): 15000 µL⁻¹ | hematocrit (day 71): 44% | hemoglobin (day 71): 12.7 g/dL | basophils (day 78): 0.4% | eosinophils (day 78): 0.9% | lymphocytes (day 78): 60% | monocytes (day 78): 3.6% | neutrophils (day 78): 35% | platelet count (day 78): 348000 µL⁻¹ | reticulocytes (day 78): 1.4% | MCHC (day 78): 30 g/dL | MCV (day 78): 76 fL | RBC count (day 78): 5.4e+06 µL⁻¹ | WBC count (day 78): 11000 µL⁻¹ | hematocrit (day 78): 41% | hemoglobin (day 78): 12.5 g/dL | basophils (day 85): 0.3% | eosinophils (day 85): 1.5% | lymphocytes (day 85): 72% | monocytes (day 85): 3.7% | neutrophils (day 85): 22% | platelet count (day 85): 344000 µL⁻¹ | reticulocytes (day 85): 1.5% | MCHC (day 85): 30 g/dL | MCV (day 85): 77 fL | RBC count (day 85): 5.5e+06 µL⁻¹ | WBC count (day 85): 12000 µL⁻¹ | hematocrit (day 85): 42% | hemoglobin (day 85): 12.4 g/dL | basophils (day −5): 0.3% | eosinophils (day −5): 0.6% | lymphocytes (day −5): 59% | monocytes (day −5): 3.6% | neutrophils (day −5): 35% | platelet count (day −5): 425000 µL⁻¹ | reticulocytes (day −5): 0.9% | MCH (day −5): 23 pg | MCHC (day −5): 31 g/dL | MCV (day −5): 76 fL | RBC count (day −5): 5.6e+06 µL⁻¹ | WBC count (day −5): 12000 µL⁻¹ | hematocrit (day −5): 42% | hemoglobin (day −5): 13.1 g/dL | basophils (day −14): 0.2% | eosinophils (day −14): 0.6% | lymphocytes (day −14): 59% | monocytes (day −14): 3.1% | neutrophils (day −14): 36% | platelet count (day −14): 377000 µL⁻¹ | reticulocytes (day −14): 1.0% | MCH (day −14): 23 pg | MCHC (day −14): 30 g/dL | MCV (day −14): 77 fL | RBC count (day −14): 5.6e+06 µL⁻¹ | WBC count (day −14): 12000 µL⁻¹ | hematocrit (day −14): 42% | hemoglobin (day −14): 12.9 g/dL
